Data published in ChEMBL document CHEMBL1201862, “PubChem BioAssay data set” (2004).
Each block holds one molecule with its values, some of them ahead of it. Calls of active or inactive are those of the source.

What was measured:
fMet-Leu-Phe receptor = biological target: T1, fMet-Leu-Phe receptor (Homo sapiens, UniProt P21462); test: formyl peptide receptor binders – dose response (AID 519); assay type: functional
T1 sequence (P21462 whole entry): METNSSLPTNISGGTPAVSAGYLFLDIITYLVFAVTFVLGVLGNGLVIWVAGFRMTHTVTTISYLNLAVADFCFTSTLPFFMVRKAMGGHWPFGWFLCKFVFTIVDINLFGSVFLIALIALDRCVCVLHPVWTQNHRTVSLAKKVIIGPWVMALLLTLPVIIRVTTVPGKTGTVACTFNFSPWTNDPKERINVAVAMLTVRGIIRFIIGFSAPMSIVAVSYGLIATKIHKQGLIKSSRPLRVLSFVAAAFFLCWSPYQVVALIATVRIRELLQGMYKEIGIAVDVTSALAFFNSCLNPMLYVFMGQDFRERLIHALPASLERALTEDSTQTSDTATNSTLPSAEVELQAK

[1] = biological target: Peroxisome proliferator-activated receptor gamma/Nuclear receptor coactivator 2 (Homo sapiens, UniProt P37231); assay type: functional;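 note: agonist potency for raising coactivator recruitment to the receptor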
[2] = biological target: Peroxisome proliferator-activated receptor gamma/Nuclear receptor coactivator 1 (Homo sapiens, UniProt P37231); assay type: functional;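 note: agonist potency as compounds enhance coactivator SRC-1 recruitment to PPARgamma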
[3] = biological target: Peroxisome proliferator-activated receptor gamma/Nuclear receptor coactivator 3 (Homo sapiens, UniProt P37231); assay type: functional;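 note: agonist potency for raising coactivator recruitment to the receptor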
[4] = Trypanosoma cruzi growth suppression in host cells – NIH3T3 host cells, beta-gal luminescence, confirmation (AID 2044); assay type: functional, cell-based;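 note: intracellular parasites grown in NIH/3T3 mouse fibroblasts as host cells; luminescent beta-galactosidase reporter signal from transgenic T. cruzi replicating inside host cells; inhibitors lower the luminescence signal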
[5] = NIH3T3 cell viability loss – ATP luminescence, mouse fibroblasts, counter-screen, dose response (AID 2010); assay type: functional, cell-based;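 note: cells exposed to compound for about 90 hours before reading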
Cytochrome P450 3A4 = Cytochrome P450 3A4 (Homo sapiens, UniProt P08684); details: Potency;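 note: confirmatory qHTS run detecting inhibitors and substrates of CYP3A4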
[6] = growth inhibition of yeast DHODH-expressing 3D7 parasites – SYBR Green, dry powder samples, dose response (AID 1159570); assay type: functional, cell-based;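 note: parasite growth measured after 72 hours of compound exposure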
[7] = P. falciparum Dd2 growth inhibitors, dose response, SYBR Green, cherry-picked samples (AID 1159567); assay type: functional, cell-based
[8] = Dd2 malaria parasite growth inhibition potency – SYBR Green, dry powder samples, dose response (AID 1159566); assay type: functional, cell-based;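 note: potency for growth inhibition with lower SYBR green DNA signal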
[9] = growth inhibition of PfATP4-mutant resistant parasites – NITD609-resistant line, SYBR Green, dry powder, dose response (AID 1159571); assay type: functional, cell-based;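 note: parasites synchronized at ring stage by sorbitol before testing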
[10] = biological target: NAD-dependent protein deacylase sirtuin-5, mitochondrial (Homo sapiens, UniProt Q9NXA8); test: sirtuin-5 deacylation blockers, concentration series – biochemical, fluorescence imaging, cherry-pick, set 5, dose response (AID 720591);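 note: desuccinylation of succinyl peptide AMC substrate read as fluorescence after trypsin release; potency of inhibitors that lower fluorescence and may act on trypsin instead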
Bcl-2-like protein 10 = biological target: T2, Bcl-2-like protein 10 (Homo sapiens, UniProt Q9HD36); test: Bcl-B/TR3 peptide binding disruption – biochemical, fluorescence polarization, FITC-TR3 peptide, selectivity assay for Bfl-1 inhibitor project, primary screen (AID 748);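 note: fluorescence polarization from a fluorescein-labelled TR3 peptide binding purified Bcl-B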
T2 sequence (Q9HD36 whole entry): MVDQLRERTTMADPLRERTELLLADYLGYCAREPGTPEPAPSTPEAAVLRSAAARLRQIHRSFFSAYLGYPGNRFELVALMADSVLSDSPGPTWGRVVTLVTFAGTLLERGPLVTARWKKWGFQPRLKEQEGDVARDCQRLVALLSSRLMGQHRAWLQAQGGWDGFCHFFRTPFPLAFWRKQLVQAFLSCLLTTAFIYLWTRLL

Cytochrome P450 2C9 = Cytochrome P450 2C9 (Homo sapiens, UniProt P11712)
[11] = toxicity to human hepatoma HepG2 cells – cell-based, cherry-picked samples, cytotoxicity control, dose response (AID 1159577); assay type: functional
[12] = biological target: T3, Rac GTPase-activating protein 1 (Homo sapiens, UniProt Q9H0H5); test: blockers of MgcRacGAP-driven Rac1 GTP hydrolysis – biochemical, ADP Hunter fluorescence, primary and confirmatory, confirmation (AID 624330); assay type: functional
T3 sequence (Q9H0H5 whole entry): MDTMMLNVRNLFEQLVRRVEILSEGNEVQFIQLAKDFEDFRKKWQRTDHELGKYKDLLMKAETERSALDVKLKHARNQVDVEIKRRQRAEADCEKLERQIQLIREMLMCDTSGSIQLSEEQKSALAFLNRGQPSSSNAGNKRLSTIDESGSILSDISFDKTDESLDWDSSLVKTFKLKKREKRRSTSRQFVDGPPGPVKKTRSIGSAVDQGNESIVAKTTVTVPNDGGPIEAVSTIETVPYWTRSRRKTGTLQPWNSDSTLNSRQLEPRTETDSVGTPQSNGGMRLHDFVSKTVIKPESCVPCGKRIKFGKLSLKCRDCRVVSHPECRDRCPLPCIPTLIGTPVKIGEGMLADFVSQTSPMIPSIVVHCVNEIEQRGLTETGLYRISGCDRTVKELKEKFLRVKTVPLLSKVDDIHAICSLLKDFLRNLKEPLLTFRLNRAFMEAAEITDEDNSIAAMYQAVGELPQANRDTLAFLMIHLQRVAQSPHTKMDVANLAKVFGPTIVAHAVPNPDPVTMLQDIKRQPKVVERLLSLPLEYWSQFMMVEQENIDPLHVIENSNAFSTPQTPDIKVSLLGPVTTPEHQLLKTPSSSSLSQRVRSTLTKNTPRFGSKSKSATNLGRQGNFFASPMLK

[13] = biological target: T4, DNA repair protein RAD52 homolog (Homo sapiens, UniProt P43351); assay type: functional, biochemical
T4 sequence (P43351 whole entry): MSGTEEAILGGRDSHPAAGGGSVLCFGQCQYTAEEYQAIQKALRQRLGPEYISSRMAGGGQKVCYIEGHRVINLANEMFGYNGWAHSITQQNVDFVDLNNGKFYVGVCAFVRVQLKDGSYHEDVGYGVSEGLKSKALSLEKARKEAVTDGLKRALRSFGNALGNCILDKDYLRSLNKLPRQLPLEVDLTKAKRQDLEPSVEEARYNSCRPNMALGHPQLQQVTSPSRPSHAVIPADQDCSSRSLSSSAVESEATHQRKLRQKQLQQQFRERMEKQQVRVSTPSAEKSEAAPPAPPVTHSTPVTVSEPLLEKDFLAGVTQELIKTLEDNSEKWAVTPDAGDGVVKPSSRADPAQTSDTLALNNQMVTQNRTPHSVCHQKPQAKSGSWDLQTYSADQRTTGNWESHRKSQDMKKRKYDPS

[14] = biological target: Induced myeloid leukemia cell differentiation protein Mcl-1 (Homo sapiens, UniProt Q07820); assay type: functional
BJ [15] = test: BJ-TERT fibroblast viability loss – cell-based, RAS-independent, luminescence, dose response (AID 1933); assay type: functional; details: Homo sapiens
BJ [16] = test: cells; assay type: functional, cell-based; details: Homo sapiens
[17] = biological target: Luciferin 4-monooxygenase (Photinus pyralis, UniProt P08659); test: inhibition of purified Photinus pyralis luciferase – biochemical, luminescence, dose response (AID 1891)
[18] = Luminescence Cell-Based Dose Confirmation HTS to Identify Inhibitors of Platelet Dense Granule Release. [Related pubchem assays: 1663 (Primary HTS), 1678 (Summary of Project)]; assay type: functional
BJ [19] = test: BJ-TERT-LT-ST fibroblast viability loss – cell-based, RAS-independent, luminescence, dose response (AID 1935); assay type: functional; details: Homo sapiens;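 note: BJ fibroblasts immortalized with TERT plus LT and ST oncogenes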
[20] = DRD fibroblast viability loss – cell-based, non-viral oncogenic, luminescence, dose response (AID 1934); assay type: functional; details: Homo sapiens
[21] = biological target: T5, Carboxy-terminal domain RNA polymerase II polypeptide A small phosphatase 1 (Homo sapiens, UniProt Q9GZU7); test: CTDSP1 inhibitors, concentration-response, biochemical, absorbance readout, ultra-high-throughput screen actives (AID 540297); assay type: functional
T5 sequence (Q9GZU7 whole entry): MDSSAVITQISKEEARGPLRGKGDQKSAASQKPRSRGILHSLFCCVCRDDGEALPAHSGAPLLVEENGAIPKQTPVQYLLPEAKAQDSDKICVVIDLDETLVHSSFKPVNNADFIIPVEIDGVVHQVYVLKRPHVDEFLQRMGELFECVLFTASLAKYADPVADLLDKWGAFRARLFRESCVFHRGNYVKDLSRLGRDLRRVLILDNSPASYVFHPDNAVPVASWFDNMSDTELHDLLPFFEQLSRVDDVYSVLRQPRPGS

[22] = biological target: Eukaryotic translation initiation factor 4E (Mus musculus, UniProt P63073); test: blockers of eIF4G binding by eIF4E – biochemical, TR-FRET, dose response (AID 855); assay type: functional;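 note: potency for disrupting eIF4E binding to eIF4GI seen as loss of FRET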
[23] = biological target: T6, Small ubiquitin-related modifier 1 (Homo sapiens, UniProt P63165); test: SUMO1 protein interaction blockers, potency – biochemical, fluorescence polarization, uHTS hits, dose response (AID 624382); assay type: functional; details: read-out: IC50_Mean
[24] = biological target: T6, Small ubiquitin-related modifier 1; test: SUMO1 protein-protein binding blockers, potency – biochemical, FRET, dose response (AID 624383); assay type: functional; details: read-out: IC50_Mean

Chain of NAD-dependent protein deacylase sirtuin-5, mitochondrial (Q9NXA8 whole entry): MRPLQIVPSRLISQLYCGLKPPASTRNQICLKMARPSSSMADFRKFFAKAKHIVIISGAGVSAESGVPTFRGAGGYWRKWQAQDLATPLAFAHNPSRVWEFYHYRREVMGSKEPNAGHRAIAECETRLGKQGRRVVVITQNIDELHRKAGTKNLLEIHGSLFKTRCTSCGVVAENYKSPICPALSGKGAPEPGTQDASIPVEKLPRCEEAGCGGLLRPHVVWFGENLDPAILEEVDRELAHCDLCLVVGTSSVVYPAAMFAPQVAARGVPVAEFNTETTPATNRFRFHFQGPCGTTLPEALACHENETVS
Chain of Peroxisome proliferator-activated receptor gamma/Nuclear receptor coactivator 1 (P37231 whole entry): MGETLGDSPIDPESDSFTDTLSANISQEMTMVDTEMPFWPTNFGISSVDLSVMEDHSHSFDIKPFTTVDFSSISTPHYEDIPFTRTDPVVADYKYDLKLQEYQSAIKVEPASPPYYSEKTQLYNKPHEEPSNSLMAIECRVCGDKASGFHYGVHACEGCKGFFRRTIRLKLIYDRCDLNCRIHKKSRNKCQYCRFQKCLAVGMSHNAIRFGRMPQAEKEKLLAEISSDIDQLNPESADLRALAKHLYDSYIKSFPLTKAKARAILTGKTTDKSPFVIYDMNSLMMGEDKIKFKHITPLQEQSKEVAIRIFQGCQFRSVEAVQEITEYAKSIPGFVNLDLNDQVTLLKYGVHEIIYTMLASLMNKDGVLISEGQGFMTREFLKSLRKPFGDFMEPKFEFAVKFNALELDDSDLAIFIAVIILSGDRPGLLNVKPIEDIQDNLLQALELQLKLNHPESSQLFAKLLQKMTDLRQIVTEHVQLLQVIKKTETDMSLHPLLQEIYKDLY
Chain of Peroxisome proliferator-activated receptor gamma/Nuclear receptor coactivator 1 (Q15788 whole entry, further chain): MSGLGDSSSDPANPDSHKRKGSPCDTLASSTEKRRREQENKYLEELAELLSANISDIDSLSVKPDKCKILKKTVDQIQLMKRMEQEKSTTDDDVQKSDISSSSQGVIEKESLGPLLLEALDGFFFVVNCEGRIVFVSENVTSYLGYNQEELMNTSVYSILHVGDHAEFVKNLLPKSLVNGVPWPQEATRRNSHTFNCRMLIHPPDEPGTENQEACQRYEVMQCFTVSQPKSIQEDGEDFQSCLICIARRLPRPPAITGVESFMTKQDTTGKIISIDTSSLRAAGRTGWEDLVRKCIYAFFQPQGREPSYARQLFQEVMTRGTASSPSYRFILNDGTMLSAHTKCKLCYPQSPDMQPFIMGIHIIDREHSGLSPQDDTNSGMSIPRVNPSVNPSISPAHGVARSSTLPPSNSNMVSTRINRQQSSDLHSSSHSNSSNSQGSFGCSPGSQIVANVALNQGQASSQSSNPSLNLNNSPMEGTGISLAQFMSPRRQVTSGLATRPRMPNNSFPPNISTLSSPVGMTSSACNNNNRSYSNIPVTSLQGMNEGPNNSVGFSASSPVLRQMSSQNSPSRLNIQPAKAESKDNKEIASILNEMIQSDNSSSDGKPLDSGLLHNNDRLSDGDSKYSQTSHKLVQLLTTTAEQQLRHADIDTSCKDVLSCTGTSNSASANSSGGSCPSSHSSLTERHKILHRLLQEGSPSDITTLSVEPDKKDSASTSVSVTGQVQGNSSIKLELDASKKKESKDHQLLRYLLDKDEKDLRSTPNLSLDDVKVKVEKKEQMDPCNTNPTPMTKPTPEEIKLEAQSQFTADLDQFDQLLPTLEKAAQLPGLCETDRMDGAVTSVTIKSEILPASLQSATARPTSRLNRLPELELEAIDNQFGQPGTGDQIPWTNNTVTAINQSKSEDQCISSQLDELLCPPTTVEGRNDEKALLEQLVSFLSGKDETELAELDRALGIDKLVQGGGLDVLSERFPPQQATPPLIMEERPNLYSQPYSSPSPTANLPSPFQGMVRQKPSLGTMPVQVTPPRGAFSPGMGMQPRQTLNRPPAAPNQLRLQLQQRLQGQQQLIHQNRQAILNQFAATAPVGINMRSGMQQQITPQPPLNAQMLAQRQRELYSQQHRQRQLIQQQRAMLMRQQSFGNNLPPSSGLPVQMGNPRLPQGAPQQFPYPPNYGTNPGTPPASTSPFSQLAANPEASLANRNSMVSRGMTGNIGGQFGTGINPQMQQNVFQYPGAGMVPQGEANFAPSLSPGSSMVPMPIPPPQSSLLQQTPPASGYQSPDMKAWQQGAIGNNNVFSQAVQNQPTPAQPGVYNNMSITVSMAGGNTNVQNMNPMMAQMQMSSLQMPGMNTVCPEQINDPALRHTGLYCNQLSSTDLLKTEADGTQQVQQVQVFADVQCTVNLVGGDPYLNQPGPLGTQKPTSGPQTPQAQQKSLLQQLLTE
Chain of Peroxisome proliferator-activated receptor gamma/Nuclear receptor coactivator 3 (P37231 whole entry): as the sequence (P37231 whole entry) above
Chain of Peroxisome proliferator-activated receptor gamma/Nuclear receptor coactivator 3 (Q9Y6Q9 whole entry, further chain): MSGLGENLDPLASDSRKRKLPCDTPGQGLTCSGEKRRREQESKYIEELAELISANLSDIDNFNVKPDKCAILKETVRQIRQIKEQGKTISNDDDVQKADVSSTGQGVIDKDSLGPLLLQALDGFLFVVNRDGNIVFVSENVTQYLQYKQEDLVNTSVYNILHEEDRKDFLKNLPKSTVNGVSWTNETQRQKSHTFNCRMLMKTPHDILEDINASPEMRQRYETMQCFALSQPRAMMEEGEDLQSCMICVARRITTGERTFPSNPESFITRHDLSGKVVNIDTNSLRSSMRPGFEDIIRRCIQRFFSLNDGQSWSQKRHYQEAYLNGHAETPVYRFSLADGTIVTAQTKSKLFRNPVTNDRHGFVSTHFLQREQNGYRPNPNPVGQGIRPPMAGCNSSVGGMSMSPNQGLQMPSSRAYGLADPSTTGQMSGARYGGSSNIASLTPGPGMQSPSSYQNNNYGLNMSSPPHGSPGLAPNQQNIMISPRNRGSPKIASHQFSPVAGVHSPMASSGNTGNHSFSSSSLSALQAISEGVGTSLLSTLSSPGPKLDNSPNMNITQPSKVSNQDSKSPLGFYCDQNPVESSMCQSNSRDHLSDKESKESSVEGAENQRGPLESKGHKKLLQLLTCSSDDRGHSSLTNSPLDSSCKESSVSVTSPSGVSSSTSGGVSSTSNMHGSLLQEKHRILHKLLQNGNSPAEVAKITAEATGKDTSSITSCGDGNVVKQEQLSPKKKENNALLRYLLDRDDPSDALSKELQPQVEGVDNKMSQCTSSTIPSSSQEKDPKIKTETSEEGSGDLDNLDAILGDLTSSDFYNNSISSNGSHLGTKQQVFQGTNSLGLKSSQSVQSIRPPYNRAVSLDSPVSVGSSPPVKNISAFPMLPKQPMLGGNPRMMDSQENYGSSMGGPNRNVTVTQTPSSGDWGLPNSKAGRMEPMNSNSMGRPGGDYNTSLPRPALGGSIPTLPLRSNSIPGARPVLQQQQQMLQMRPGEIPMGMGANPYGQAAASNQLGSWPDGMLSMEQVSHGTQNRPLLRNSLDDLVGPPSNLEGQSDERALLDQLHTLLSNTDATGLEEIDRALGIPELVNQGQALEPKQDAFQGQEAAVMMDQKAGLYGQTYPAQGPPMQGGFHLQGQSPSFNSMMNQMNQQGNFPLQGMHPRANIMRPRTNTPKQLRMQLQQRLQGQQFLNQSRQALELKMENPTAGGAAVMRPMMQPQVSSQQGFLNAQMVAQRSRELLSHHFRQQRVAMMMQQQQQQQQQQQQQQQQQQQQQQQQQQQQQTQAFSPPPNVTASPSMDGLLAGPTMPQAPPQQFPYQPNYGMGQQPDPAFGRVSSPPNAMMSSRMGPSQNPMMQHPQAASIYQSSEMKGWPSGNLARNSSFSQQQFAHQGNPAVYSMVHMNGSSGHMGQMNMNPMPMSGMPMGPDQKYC
Chain of Cytochrome P450 3A4 (P08684 whole entry): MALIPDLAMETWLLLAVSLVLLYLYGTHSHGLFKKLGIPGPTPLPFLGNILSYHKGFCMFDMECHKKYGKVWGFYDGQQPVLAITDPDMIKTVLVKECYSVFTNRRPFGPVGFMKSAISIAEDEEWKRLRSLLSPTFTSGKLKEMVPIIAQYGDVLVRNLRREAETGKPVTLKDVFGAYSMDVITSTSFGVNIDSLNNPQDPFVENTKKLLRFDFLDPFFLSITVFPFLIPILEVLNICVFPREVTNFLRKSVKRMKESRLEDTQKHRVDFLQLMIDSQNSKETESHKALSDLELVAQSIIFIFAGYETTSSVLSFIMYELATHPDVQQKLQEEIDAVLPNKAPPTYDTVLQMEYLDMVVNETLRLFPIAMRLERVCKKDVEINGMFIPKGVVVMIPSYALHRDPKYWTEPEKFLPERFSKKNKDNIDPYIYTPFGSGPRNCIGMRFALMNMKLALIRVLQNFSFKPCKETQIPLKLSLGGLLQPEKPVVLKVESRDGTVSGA
Chain of Induced myeloid leukemia cell differentiation protein Mcl-1 (Q07820 whole entry): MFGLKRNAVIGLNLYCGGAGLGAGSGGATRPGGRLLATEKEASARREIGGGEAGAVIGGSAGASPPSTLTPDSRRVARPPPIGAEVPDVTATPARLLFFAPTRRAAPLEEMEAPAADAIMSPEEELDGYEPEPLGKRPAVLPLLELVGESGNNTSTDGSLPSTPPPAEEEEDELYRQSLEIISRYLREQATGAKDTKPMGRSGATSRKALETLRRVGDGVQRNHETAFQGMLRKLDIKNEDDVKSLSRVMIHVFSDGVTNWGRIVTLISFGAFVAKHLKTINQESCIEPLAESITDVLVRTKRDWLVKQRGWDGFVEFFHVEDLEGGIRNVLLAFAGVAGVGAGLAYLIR

- Ki (fMet-Leu-Phe receptor): > 66.7 µM (inactive)
SMILES: COC(=O)C1=[N+]([O-])OC(C(=O)OC)C1c1c[nH]c2ccccc12 (stereo not given)

SMILES: CN(C)CCCN(C(=O)c1ccc(N2C(=O)CCC2=O)cc1)c1nc2c(F)cccc2s1
- EC50 [1]: > 79.4 µM (not active)
- EC50 [2]: > 79.4 µM (not active)
- EC50 [3]: > 79.4 µM (not active)
- EC50 [4]: 0.471 µM (active)
- EC50 [5]: > 30 µM (not active)

SMILES: c1nc[nH]n1
- AC50 (Cytochrome P450 3A4): 31.6 µM (inconclusive)

SMILES: CCc1csc(N2[C@H](C#N)[C@H](c3ccccc3-c3ccc(F)cc3)[C@H]2CO)n1
- AC50 [6]: 1.13 µM (active)
- AC50 [7]: 2.65 µM (active)
- AC50 [8]: 0.989 µM (active)
- AC50 [9]: 5.46 µM (active)

- AC50 [10]: > 30 µM (inactive)
SMILES: CSc1ccccc1NC(=O)COC(=O)CCC(=O)c1ccc(F)cc1

SMILES: C[C@H](CO)N1C[C@H](C)[C@H](CN(C)S(=O)(=O)c2ccc([N+](=O)[O-])cc2)OCc2ccccc2-c2c(n(C)c3ccccc23)C1=O
- AC50 [6]: 0.476 µM (active)
- AC50 [7]: 1 µM (active)
- AC50 [8]: 0.305 µM (active)
- AC50 [9]: 0.308 µM (active)

- IC50 (Bcl-2-like protein 10): 73.3 µM (inactive)
- AC50 (Cytochrome P450 2C9): 4.47 µM (inconclusive)
SMILES: Cc1ccc(-n2nc3ccc(NC(=O)c4ccc5c(c4)OCO5)cc3n2)cc1

- AC50 (Cytochrome P450 3A4): 0.0126 µM (inconclusive)
SMILES: N#CCC(=O)NC(=O)NCC1CC1

SMILES: COc1ccc2c3c([nH]c2c1)[C@@H](CO)N(C(=O)CN(C)C)CC31CN(CC2CCCC2)C1
- AC50 [7]: 2.12 µM (active)
- AC50 [11]: 13.8 µM (active)

SMILES: Nc1ccc(-c2ccc(N)cc2)cc1 [BENZIDINE]
- IC50 [12]: 7.39 µM (active)
- AC50 (Cytochrome P450 3A4): 25.1 µM (inconclusive)

- EC50 [1]: > 79.4 µM (not active)
- EC50 [2]: > 79.4 µM (not active)
- EC50 [3]: > 79.4 µM (not active)
SMILES: CCc1ccc(N(C(=O)c2csnn2)C(C(=O)NC(C)(C)C)c2cccnc2)cc1 (stereo not given)

SMILES: CCN1CCN(c2ccc(N)c(C)c2)CC1
- IC50 [12]: 48.3 µM (active)
- AC50 [13]: 3.46 µM (active)

- IC50 [14]: 4.84 µM (active)
SMILES: O=C(COC(=O)c1ccc2c(c1)C(=O)N(Cc1ccncc1)C2=O)Nc1ccccc1[N+](=O)[O-]

SMILES: COC(=O)[C@@H]1C[C@H]2CC[C@H](O)C[C@H]2N1CC1CC1
- AC50 (Cytochrome P450 3A4): 20 µM (inconclusive)

- EC50 [1]: > 79.4 µM (not active)
- EC50 [2]: > 79.4 µM (not active)
- EC50 [3]: > 79.4 µM (not active)
SMILES: CCN(CC)C(=O)CSc1nc2ncccc2[nH]1

- EC50 [1]: > 79.4 µM (not active)
- EC50 [2]: > 79.4 µM (not active)
- EC50 [3]: > 79.4 µM (not active)
SMILES: CCn1cc(S(=O)(=O)Nc2ccccc2C(F)(F)F)cn1

SMILES: Cc1ncsc1C(=O)Nc1nc2c(s1)CCCC2
- EC50 (BJ [15]): 18 µM (active)
- EC50 (BJ [16]): 20 µM (active)
- EC50 [17]: 3.81 µM (active)
- EC50 [18]: 3.99 µM (active)
- EC50 (BJ [19]): > 150 µM (not active)
- EC50 [20]: 20.9 µM (inconclusive)

- Ki (fMet-Leu-Phe receptor): > 66.7 µM (inactive)
SMILES: O=C(Nc1ccc(Nc2ccccc2)cc1)c1ccc(Br)o1

- IC50 [14]: 3.75 µM (active)
- IC50 [21]: 4.27 µM (active)
SMILES: O=C(N/N=C/c1ccco1)c1cccc(N2Cc3ccccc3C2)c1

SMILES: COc1ccc(S(=O)(=O)N2CCOc3ccccc32)cc1
- EC50 (BJ [15]): 14 µM (active)
- EC50 (BJ [16]): 55.9 µM (inconclusive)
- EC50 (BJ [19]): 10.3 µM (inconclusive)
- EC50 [20]: 13.1 µM (inconclusive)

- AC50 [10]: > 30 µM (inactive)
SMILES: COc1ccc(S(=O)(=O)N2CCOCC2)cc1NC(=O)CSc1n[nH]c(C(C)C)n1

SMILES: COc1ccc(OC)c(-c2csc(NC(=O)Cn3[nH]c(=O)c4ccccc4c3=O)n2)c1
- IC50 [22]: 50 µM (inactive)
- IC50 [23]: > 66.6 µM (inactive)
- IC50 [24]: 100 µM (inactive)
- AC50 [10]: 28 µM (active)

- Ki (fMet-Leu-Phe receptor): 18.4 µM (inactive)
SMILES: CCN(C(=O)Cc1c(C(=O)O)[nH]c2ccccc12)c1cc(OC)ccc1OC
